In brackets after ≈: the same amount, converted by molar mass.
What was measured:
[1] = target: T1, Epidermal Growth Factor Receptor Kinase (EGF-R) (Homo sapiens, UniProt P00533); assay: Inhibition of Epidermal Growth Factor Receptor Kinase (EGF-R) using recombinant enzyme; assay type: biochemical; conditions: for inhibition at 0.5 µM: 0.5 µM concentration of test compound; for IC50: recombinant enzyme
T1 construct: containing the EGFR cDNA encoding amino acids 645 - 1186 preceded by Met-Ala-(His)6; Met-Ala-(His)6 (N); made in house; host or cells: Sf9 insect cells (baculovirus vHcEGFR52)
Method: Representative test compounds were evaluated for their ability to inhibit the phosphorylation of the tyrosine residue of a peptide substrate catalyzed by the enzyme epidermal growth factor receptor kinase. The peptide substrate (RR-SRC) has the sequence arg-arg-leu-ile-glu-asp-ala-glu-tyr-ala-ala-arg-gly. The enzyme used in this assay is the His-tagged cytoplasmic domain of EGFR. A recombinant baculovirus (vHcEGFR52) was constructed containing the EGFR cDNA encoding amino acids 645 - 1186 preceded by Met-Ala-(His)6. Sf9 cells in 100 mm plates were infected at an moi of 10 pfu/cell and cells were harvested 48 hours post infection. A cytoplasmic extract was prepared using 1% Triton X-100 and applied to Ni-NTA column. After washing the column with 20 mM imidazole, HcEGFR was eluted with 250 mM imidazole (in 50 mM Na2HPO4, pH 8.0, 300 mM NaCl). Fractions collected were dialyzed against 10 mM HEPES, pH 7.0, 50 mM NaCl, 10% glycerol, 1µg/mL antipain and leupeptin and 0.1 mM Pefabloc SC. The protein was frozen in dry ice/methanol and stored -70° C.
Test compounds were made into 10 mg/mL stock solutions in 100% dimethylsulfoxide (DMSO). Prior to experiment, stock solutions were diluted to 500 µM with 100% DMSO and then serially diluted to the desired concentration with HEPES buffer (30 mM HEPES pH 7.4).
For the enzyme reaction, 10 µL of each inhibitor (at various concentrations) were added to each well of a 96-well plate. To this was added 3 µL of enzyme (1:10 dilution in 10mM HEPES, pH 7.4 for final conc. of 1:120). This was allowed to sit for 10 minutes on ice and was followed by the addition of 5 µl peptide (80 uM final conc.), 10µl of 4X Buffer (Table A), 0.25 µL ^33P-ATP and 12 µL H2O. The reaction was allowed to run for 90 minutes at room temperature and was followed by spotting the entire volume on to precut P81 filter papers. The filter discs were washed 2X with 0.5% phosphoric acid and radioactivity was measured using a liquid scintillation counter. Table A
The inhibition data for representative compounds of the invention are shown below in TABLE 1. The IC50 is the concentration of test compound needed to reduce the total amount of phosphorylated substrate by 50%. The % inhibition of the test compound was determined for at least three different concentrations and the IC50 value was evaluated from the dose response curve. […] CPM(control) is in units of counts per minute and was a number expressing the amount of radiolabeled ATP (γ-^33P) incorporated into the RR-SRC peptide substrate by the enzyme after 90 minutes at room temperature in the absence of test compound as measured by liquid scintillation counting. The CPM values were corrected for the background counts produced by ATP in the absence of the enzymatic reaction. Where it was possible to determine an IC50 value, this is reported in TABLE 1 otherwise the % inhibition at 0.5 µM concentration of test compound is shown in TABLE 1.

[2] = test system: Her2Neu; assay: Inhibition of cancer cell growth as measured by cell number (Sulforhodamine B); assay type: cell-based; conditions: 48 hours exposure; 3T3 line transfected with Her2 receptor kinase
Method: (§1) Human tumor cell lines were plated in 96-well plates (250 µl/well, 1-6 x 10^4 cells/ml) in RPMI 1640 medium, containing 5% FBS (Fetal Bovine Serum). […] After 48 hours exposure to test compounds, cells were fixed with trichloroacetic acid, and stained with Sulforhodamine B. After washing with trichloroacetic acid, bound dye was solubilized in 10 mM Tris base and optical density was determined using a plate reader. Under conditions of the assay the optical density is proportional to the number of cells in the well. IC50s (concentrations causing 50% inhibition of cell growth) were determined from the growth inhibition plots. The test procedure is described in details by Philip Skehan et. al, J.Natl. Canc. Inst., 82, 1107-1112 (1990). […] Information about some of the cell lines used in these test procedures is available from the American Type Tissue Collection: Cell Lines and Hybridomas, 1994 Reference Guide, 8th Edition. The Her2Neu cell line is a 3T3 line that has been transfected with Her2 receptor kinase.

[3] = test system: SW620; assay: as above; assay type: cell-based; conditions: Homo sapiens, SW-620; 48 hours exposure
Method: as §1

[4] = test system: A431; assay: as above; assay type: cell-based; conditions: Homo sapiens, A-431; 48 hours exposure
Method: as §1

[5] = test system: SKBR3; assay: as above; assay type: cell-based; conditions: Homo sapiens, SK-BR-3; 48 hours exposure
Method: as §1

[6] = test system: MDA435; assay: as above; assay type: cell-based; conditions: Homo sapiens, 48 hours exposure
Method: as §1

[7] = test system: 3T3; assay: as above; assay type: cell-based; conditions: Mus musculus, NIH3T3; 48 hours exposure
Method: as §1

[8] = target: T2, c-Met (Homo sapiens, UniProt P08581); assay: DELFIA assay for c-Met receptor kinase inhibitors; assay type: biochemical
T2 construct: The cytoplasmic domain of c-Met was generated by reverse transcriptase-polymerase chain reaction; His tag (from pFastBac-HTc vector; purified on Ni-NTA/Talon); made in house; host or cells: Sf9 insect cells (baculovirus)
Method: The c-Met kinase assay was performed as a DELFIA (dissociation enchanced lanthanide fluorometric immunoassay), an ELISA-like protocol based upon time-resolved fluorometry as described previously [Braunwalder, A. F., Yarwood, D.R., Sills, M.A., and Lipson, K.E., Anal. Biochem. 238, 159-164 (1996)]. The protocol was adopted for the screening of inhibitors of the kinase activity of recombinant c-Met. [Loganzo, F., and. Hardy, C., American Biotechnology Laboratory 16(13), 26-28 (1998)]. The cytoplasmic domain of c-Met was generated by reverse transcriptase-polymerase chain reaction using RNA isolated from human mammary epithelial cells as template, cloned into the pFastBac-HTc vector (Life Technologies) and protein expressed in Sf9 insect cells by baculovirus infection. Protein was purified by imidazole elution from Ni-NTA resin (Invitrogen, Carlsbad, CA) or Talon resin (Clontech, Palo Alto, CA). Various conditions were evaluated for the kinase screening protocol and screening was accomplished with the following method. Polystyrene Maxisorp plates (Nunc) were pre-coated for 1 hour to overnight at room temperature with 5 µg/ml poly(Glu4-Tyr) diluted in Tris-buffered saline (TBS). Plates were washed 3X with TBS. c-Met protein preparation was diluted 1:80 into 0.1% BSA/ 4 mM HEPES. A master mix was prepared consisting of: 1 volume of diluted c-Met, 1 volume of 5X buffer (20 mM HEPES, pH 7.4; 2 mM MnCl2; 100 µM Na3VO4; 1 mM DTT), 0.9 volume of water. Master mix (29 µl) was added to the wells of peptide-coated microtiter plates. For assays where c-Met autophosphorylation was evaluated, plates were uncoated and c-Met was diluted into 4 mM HEPES at 1:40 without BSA. Compounds (1 µl) at various dilutions (1 mM to 0.1 µM) prepared in DMSO were added and mixed well with an automatic piptettor. After incubation 20 minutes at room temperature, the reaction was initiated with 20 µl of 62.5 µM ATP/ 50 mM MgCl2 (final 25 µM ATP/ 20 mM MgCl2 in assay). Reactions were incubated 45 minutes at room temperature. Plates were then washed 3X with 100 µl each of DELFIA wash buffer (Wallac). Antibody binding was performed by adding 75 µl of Europium-conjugated anti-phosphotyrosine diluted 1:2000 in Assay Buffer (Wallac) for 1 hour at room temperature. Plates were washed 3X with DELFIA wash buffer. Detection was done by addition of 100 µl of Enhancement Solution (Wallac). After 30 minutes, plates were read in a Wallac VICTOR-2 time-resolved fluorometer. Inhibition data was reported as europium counts for compound treated wells normalized to control counts. IC50 values were obtained by using log doses of compound and calculated using Data Analysis Toolbox software, version 1.0.2 (MDL Information Systems, Inc.).

[9] = test system: Human Epidermoid Tumors (A431); assay: In vivo inhibition of the growth of human epidermoid tumors (A431); design: species or system BALB/c nu/nu female mice; conditions: for %T/C / RTG Day 7 / RTG Day 14 / RTG Day 21: days 1 through 10; for S/T: # of Survivors/# of Treated on Day +21
Method: BALB/c nu/nu female mice (Charles River, Wilmington, MA) were used in the in vivo standard pharmacological test procedures. Human epidermoid carcinoma cells A-431 (American Type Culture Collection, Rockville, Maryland # CRL-155) were grown in vitro as described above. A unit of 5 X 10^6 cells were injected subcutaneously into mice. When tumors attained a mass of between 100 and 150 mg, the mice were randomized into treatment groups (day zero). Mice were treated orally (PO) once a day on days 1 through 10 post staging with doses of either 40, 20, 10, 3 or 1 mg/kg/dose of the compound to be evaluated in 0.2% Klucel. Control animals received no drug. Tumor mass was determined every 7 days [(length X width^2)/2] for 28 days post staging. Relative tumor growth (Mean tumor mass on day 7, 14, and 21 divided by the mean tumor mass on day zero) is determined for each treatment group. The %T/C (Tumor/Control) is determined by dividing the relative tumor growth of the treated group by the relative tumor growth of the placebo group and multiplying by 100. A compound is considered to be active if the %T/C is found to be […].

T1 sequence (P00533 669-1210): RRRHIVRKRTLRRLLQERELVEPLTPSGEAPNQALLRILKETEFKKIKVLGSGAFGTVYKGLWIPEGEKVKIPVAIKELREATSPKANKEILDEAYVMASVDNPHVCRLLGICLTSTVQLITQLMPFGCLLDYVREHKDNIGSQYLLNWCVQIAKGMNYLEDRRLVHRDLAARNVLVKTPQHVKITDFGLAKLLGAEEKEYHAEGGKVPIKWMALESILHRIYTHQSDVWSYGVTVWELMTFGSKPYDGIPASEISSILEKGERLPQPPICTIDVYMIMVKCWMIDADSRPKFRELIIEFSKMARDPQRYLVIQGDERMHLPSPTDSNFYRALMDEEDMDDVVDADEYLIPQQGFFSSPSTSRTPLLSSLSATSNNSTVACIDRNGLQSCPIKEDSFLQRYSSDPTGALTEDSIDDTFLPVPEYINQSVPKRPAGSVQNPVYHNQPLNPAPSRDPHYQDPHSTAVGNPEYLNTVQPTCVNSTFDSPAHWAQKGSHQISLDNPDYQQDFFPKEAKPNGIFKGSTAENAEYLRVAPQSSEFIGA
T2 sequence (P08581 956-1390 limits assumed): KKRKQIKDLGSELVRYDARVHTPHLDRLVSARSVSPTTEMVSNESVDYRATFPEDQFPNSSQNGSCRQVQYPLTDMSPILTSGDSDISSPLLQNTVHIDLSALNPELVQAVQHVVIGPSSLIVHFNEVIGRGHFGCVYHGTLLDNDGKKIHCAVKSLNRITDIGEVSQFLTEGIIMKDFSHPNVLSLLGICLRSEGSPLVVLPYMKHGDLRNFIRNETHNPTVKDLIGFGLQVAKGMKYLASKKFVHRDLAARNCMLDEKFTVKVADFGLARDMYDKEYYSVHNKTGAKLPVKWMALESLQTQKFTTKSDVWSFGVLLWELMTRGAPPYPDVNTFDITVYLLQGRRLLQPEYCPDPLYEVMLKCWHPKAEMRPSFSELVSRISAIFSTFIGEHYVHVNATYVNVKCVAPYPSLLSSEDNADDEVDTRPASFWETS

Structure (SMILES): N#Cc1cnc2cc3c(cc2c1Nc1ccc(F)c(Cl)c1)N(CCCCCl)CCO3 [Example 11, 1-(4-Chlorobutyl)-9-(3-chloro-4-fluoroanilino)-2,3-dihydro-1H-[1,4]oxazino[3,2-g]quinoline-8-carbonitrile]
- inhibition at 0.5 µM [1]: 73%
- IC50 [1]: 1 nM
- IC50 [2]: > 5 µg/mL
- IC50 [3]: > 5 µg/mL
- IC50 [4]: 1.9 µg/mL (≈ 4.27 µM)
- IC50 [5]: 2.53 µg/mL (≈ 5.68 µM)
- IC50 [6]: > 5 µg/mL
- IC50 [7]: 3.89 µg/mL (≈ 8.74 µM)
- inhibition at 10 µg/mL [8]: 42%

Structure (SMILES): CN(C)C/C=C/C(=O)N1CCOc2cc3ncc(C#N)c(Nc4ccc(F)c(Cl)c4)c3cc21 [Example 9, 9-(3-Chloro-4-fluoroanilino)-1-[(2E)-4-(dimethylamino)-2-butenoyl]-2,3-dihydro-1H-[1,4]oxazino[3,2-g]quinoline-8-carbonitrile]
- inhibition at 0.5 µM [1]: 56.5%
- IC50 [1]: 170 nM
- IC50 [2]: 0.15 µg/mL (≈ 0.323 µM)
- IC50 [3]: 0.165 µg/mL (≈ 0.354 µM)
- IC50 [4]: 0.108 µg/mL (≈ 0.232 µM)
- IC50 [6]: 0.24 µg/mL (≈ 0.515 µM)
- IC50 [7]: 0.169 µg/mL (≈ 0.364 µM)
- %T/C ([9]; 1 mg/kg/dose PO, Day 7): 103%
- RTG Day 7 ([9]; 1 mg/kg/dose PO, Day 7): 4.66
- %T/C ([9]; 1 mg/kg/dose PO, Day 14): 73%
- RTG Day 14 ([9]; 1 mg/kg/dose PO, Day 14): 8.11
- %T/C ([9]; 1 mg/kg/dose PO, Day 21): 76%
- RTG Day 21 ([9]; 1 mg/kg/dose PO, Day 21): 13.23
- S/T ([9]; 1 mg/kg/dose PO): 5/5
- %T/C ([9]; 3 mg/kg/dose PO, Day 7): 104%
- RTG Day 7 ([9]; 3 mg/kg/dose PO, Day 7): 4.76
- %T/C ([9]; 3 mg/kg/dose PO, Day 14): 107%
- RTG Day 14 ([9]; 3 mg/kg/dose PO, Day 14): 11.79
- %T/C ([9]; 3 mg/kg/dose PO, Day 21): 137%
- RTG Day 21 ([9]; 3 mg/kg/dose PO, Day 21): 23.77
- S/T ([9]; 3 mg/kg/dose PO): 5/5
- %T/C ([9]; 10 mg/kg/dose PO, Day 7): 105%
- RTG Day 7 ([9]; 10 mg/kg/dose PO, Day 7): 4.81
- %T/C ([9]; 10 mg/kg/dose PO, Day 14): 87%
- RTG Day 14 ([9]; 10 mg/kg/dose PO, Day 14): 9.66
- %T/C ([9]; 10 mg/kg/dose PO, Day 21): 64%
- RTG Day 21 ([9]; 10 mg/kg/dose PO, Day 21): 11.49
- S/T ([9]; 10 mg/kg/dose PO): 5/5
- %T/C ([9]; 20 mg/kg/dose PO, Day 7): 118%
- RTG Day 7 ([9]; 20 mg/kg/dose PO, Day 7): 5.40
- %T/C ([9]; 20 mg/kg/dose PO, Day 14): 96%
- RTG Day 14 ([9]; 20 mg/kg/dose PO, Day 14): 10.56
- %T/C ([9]; 20 mg/kg/dose PO, Day 21): 84%
- RTG Day 21 ([9]; 20 mg/kg/dose PO, Day 21): 14.56
- S/T ([9]; 20 mg/kg/dose PO): 5/5
- %T/C ([9]; 40 mg/kg/dose PO, Day 7): 75%
- RTG Day 7 ([9]; 40 mg/kg/dose PO, Day 7): 3.40
- %T/C ([9]; 40 mg/kg/dose PO, Day 14): 53%
- RTG Day 14 ([9]; 40 mg/kg/dose PO, Day 14): 5.93
- %T/C ([9]; 40 mg/kg/dose PO, Day 21): 41%
- RTG Day 21 ([9]; 40 mg/kg/dose PO, Day 21): 7.15
- S/T ([9]; 40 mg/kg/dose PO): 5/5
- inhibition of tumor growth in vivo ([9]; summary statement in words): effective inhibitor of tumor growth in vivo
